The source of these data is patent US20070270501A1, “Medicaments for Treating Barrett's Eesophagus” (Medical Research Council, priority 2004, published 2007).

Assay [1] has as its target RARs. To be noted: pan-RAR antagonist; read-out: Kd for binding to RARs; cited from earlier work.
The subject of assay [2] is retinoid X receptor (RXR). To be noted: cited from earlier work.
Assay [3] deals with CYP26A1 in squamous cell line (NES). Description: RT-PCR of CYP26A1 expression in squamous cells. It is filed as cell-based. To be noted: squamous cells / normal squamous epithelium. The procedure: Expression of CYP26A1 in Barrett's (BAR, Qhtert) and squamous cell line (NES) is examined by RT-PCR. […] The control when nil is added is denoted by N. The LRAT is the enzyme for retinyl ester formation from excessive retinol.

In assay [4] the test system is Barrett's oesophagus biopsies. Description: Ex vivo organ culture of Barrett's oesophagus biopsies with citral. It counts as cell-based, human.
In assay [5] the test system is RAR. Conditions: cited from earlier work.
Assay [6] concerns squamous oesophageal biopsies. Description: Ex vivo organ culture of squamous oesophageal biopsies with retinoic acid.
Setting [7] is: citral transformed tissue compared with native counterpart.
Setting [8] is: retinoic acid transformed tissue compared with native counterpart.

SMILES strings stand for the structures. Entries after “also recorded” stand apart in the source; their conditions may differ.

In the case of `CCc1ccc(C2=CC(C)(C)Sc3ccc(C#Cc4ccc(C(=O)O)cc4)cc32)cc1` [AGN194310], the Kd in assay [1] was 2.5 nM.

On to `CCCN1c2ccccc2N=C(c2ccc(C(=O)O)cc2)c2cc3c(cc21)C(C)(C)CCC3(C)C` [HX603], for which the RXR antagonistic activity entry in assay [2] is on record as “selective antagonistic activity”.

Turning to `CC(C)=CCCC(C)=CC=O` [citral, 3,7-dimethyl-2,6-octadienal], in assay [3], the “CYP26A1 expression / regulation” value is “depression of CYP26A1 activity; also recorded: down-regulated”. The “Barrett's explants with squamous phenotype” value in assay [4] (after 48 h citral in culture, 5/10 explants) was 50%. For the same compound, in assay [4] (setting [7]), the BrdU incorporation entry is “lack of BrdU incorporation” and the Ki-67 staining entry is “reduced Ki-67 staining”. Besides, the “cytokeratin expression (immunohistochemistry)” value in assay [4] (citral treated Barrett's explants, 48 h) is “expression of CK13 and CK14, but not CK8/18”.

Take `CC1(C)CCC(C)(C)c2cc3c(cc21)CCc1c(-c2ccc(C(=O)O)cc2)cn(Cc2cccnc2)c1-3` [compound 31, 4-[4,5,7,8,9,10-hexahydro-7,7,10,-10-tetramethyl-1-(3-pyridylmethyl)anthra[1,2-b]pyrrol-3-yl]benzoic acid]: the “effectiveness of RAR antagonism” value in assay [5] was “most effective”.

As for `CC1(C)CCC(C)(C)c2cc3c(cc21)SCc1c(-c2ccc(C(=O)O)cc2)cn(Cc2cccnc2)c1-3` [compound 40, 4-[4,5,7,8,9,10-hexahydro-7,7,10,10-tetramethyl-1-(3-pyridylmethyl)-5-thiaanthral[1,2-b]pyrrol-3-yl]benzoic acid], the “effectiveness of RAR antagonism” value in assay [5] is listed as “most effective”.

Consider `CC1(C)CCC(C)(C)c2cc3c(cc21)CCc1c(-c2ccc(C(=O)O)cc2)nn(Cc2cccnc2)c1-3` [compound 55, 4-[4,5,7,8,9,10-hexahydro-7,7,10,10-tetramethyl-1-(3-pyridylmethyl)anthra[2,1-d]pyrazol-3-yl]benzoic acid], for which the “effectiveness of RAR antagonism” value in assay [5] is on record as “most effective”.

On to `CC1=C(/C=C/C(C)=C/C=C/C(C)=C/C(=O)O)C(C)(C)CCC1` [retinoic acid, all-trans retinoic acid], for which the “CYP26A1 expression / regulation” value in assay [3] was “not induced”. The “squamous tissue with glandular phenotype (villiform surface and mucosal glands)” value in assay [6] (after 48 hours retinoic acid in culture, 8/31 explants) is 26%. The “epithelial markers by RT-PCR” value in assay [6] (full thickness squamous epithelial biopsy (NE)) was “induced the glandular epithelial markers CK 8/18 and 7 with reduction of the squamous epithelial CK13”. In addition, in assay [6] (retinoic acid induced glandular tissue, 48 hours), the “cytokeratin expression (immunohistochemistry)” value is “expresses cytokeratins CK8/18 and CK7 but not CK13”. In addition, in assay [6] (setting [8]), the BrdU incorporation result was “lack of BrdU incorporation” and the Ki-67 staining result is on record as “reduced Ki-67 staining”. In assay [6] (retinoic acid treated squamous tissue), the p21 expression entry was “enhanced p21 expression”. Also, the “villin (immunohistochemistry)” value in assay [6] (retinoic acid treated tissue) was “strongly induced”.

In the case of `CC1=C(/C=C/C(C)=C/C=C/C(C)=C/CO)C(C)(C)CCC1` [retinol], in assay [3], the “CYP26A1 expression / regulation” value was “not induced”.

What is called Kd is the free concentration of one partner at which half of the binding sites on the other are occupied at equilibrium, for simple one-to-one binding.
